US9815847B2 (Icahn School of Medicine at Mount Sinai, priority 2013, dated 2017)

Assays:
DU145 = assay: Cytotoxicity on DU145 cancer cell line; format: cell-based; settings: Homo sapiens, DU-145; DU145 prostate cancer; 96 h; 0.01-100 μM
How it was run: (§1)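 K562 (Bcr-Abl-positive leukaemia) or DU145 prostate cells, 2.5×10^4 per well, dosed 24 h after plating with compound in DMSO at 0.01–100 μM. Assessed 96 h later by microscopic observation and, where needed, viable counts by trypan blue exclusion.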

FLT3 = molecular target: T1, FLT3 (Homo sapiens, UniProt P36888); assay: Kinase inhibition assay; format: biochemical; settings: 10 μM ATP; 5-dose IC50 mode
T1 construct: purchased Reaction Biology Corporation
Experimental: (§2) Kinase assays were performed at Reaction Biology Corporation. To a freshly prepared buffer solution was added the target kinase at a concentration of […]. The contents were mixed gently, and then compound 8h dissolved in DMSO was added to the reaction mixture in the appropriate concentration. The mixture was incubated at room temperature for 30 min. prior to addition of ATP to initiate the reaction. Compound 8h was tested in a 5-dose IC50 mode with 10-fold serial dilutions starting at 10 μM. For each of the kinases, a control compound in a 10-dose IC50 mode with 3-fold serial dilutions starting at 20 μM. The control compounds were GW5074 (3-(3,5-dibromo-4-hydroxy-benzylidene)-5-iodo-1,3-dihydro-indol-2-one) for BRAF, CK2a and RAF1, D4476 (4-[4-(2,3-dihydro-1,4-benzodioxin-6-yl)-5-(2-pyridinyl)-1H-imidazol-2-yl]benzamide) for CK1d; Wee1 inhibitor (4-(2-chlorophenyl)-9-hydroxypyrrolo[3,4-c]carbazole-1,3-(2H,6H)-dione) for WEE1 and saturosporine for other kinases. Reaction was carried out at 10 μM ATP concentration.

JAK3 = molecular target: T2, JAK3 (Homo sapiens, UniProt P52333); assay: Kinase inhibition assay; format: biochemical; settings: 10 μM ATP; 5-dose IC50 mode
T2 construct: purchased Reaction Biology Corporation
Experimental: as §2

RET = molecular target: T3, RET (Homo sapiens, UniProt P07949); assay: Kinase inhibition assay; format: biochemical; settings: 10 μM ATP; 5-dose IC50 mode
T3 construct: purchased Reaction Biology Corporation
Experimental: as §2

CHK1 = molecular target: T4, CHK1 (Homo sapiens, UniProt O14757); assay: Kinase inhibition assay; format: biochemical; settings: 10 μM ATP; 5-dose IC50 mode
T4 construct: purchased Reaction Biology Corporation
Experimental: as §2

CDK4/cyclin D1 = molecular target: T5, CDK4/cyclin D1 (Homo sapiens, UniProt P11802); assay: Kinase inhibition assay; format: biochemical; settings: 10 μM ATP; 5-dose IC50 mode
T5 construct: purchased Reaction Biology Corporation
Experimental: as §2

ARK5/NUAK1 = molecular target: T6, ARK5/NUAK1 (Homo sapiens, UniProt O60285); assay: Kinase inhibition assay; format: biochemical; settings: 10 μM ATP; 5-dose IC50 mode
T6 construct: purchased Reaction Biology Corporation
T6 sequence (O60285 whole entry): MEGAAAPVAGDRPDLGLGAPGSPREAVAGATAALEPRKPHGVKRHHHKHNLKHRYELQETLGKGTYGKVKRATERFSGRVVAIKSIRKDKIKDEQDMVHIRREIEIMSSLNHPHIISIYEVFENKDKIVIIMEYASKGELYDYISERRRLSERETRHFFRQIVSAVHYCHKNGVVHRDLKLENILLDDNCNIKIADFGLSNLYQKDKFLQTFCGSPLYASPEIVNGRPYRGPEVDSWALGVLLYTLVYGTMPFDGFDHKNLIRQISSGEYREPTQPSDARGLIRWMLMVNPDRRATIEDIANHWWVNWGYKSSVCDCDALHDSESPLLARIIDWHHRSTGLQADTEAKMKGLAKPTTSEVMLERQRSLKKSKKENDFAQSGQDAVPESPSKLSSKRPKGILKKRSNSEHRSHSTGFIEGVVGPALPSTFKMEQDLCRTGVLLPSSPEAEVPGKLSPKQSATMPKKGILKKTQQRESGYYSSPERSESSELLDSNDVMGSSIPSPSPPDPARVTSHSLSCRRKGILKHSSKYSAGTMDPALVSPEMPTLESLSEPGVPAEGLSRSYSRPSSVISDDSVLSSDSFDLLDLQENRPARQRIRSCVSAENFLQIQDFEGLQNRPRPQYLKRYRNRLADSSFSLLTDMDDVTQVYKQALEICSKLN
Experimental: as §2

PDGFRb = molecular target: T7, PDGFRb (Homo sapiens, UniProt P09619); assay: Kinase inhibition assay; format: biochemical; settings: 10 μM ATP; 5-dose IC50 mode
T7 construct: purchased Reaction Biology Corporation
T7 sequence (P09619 33-1106): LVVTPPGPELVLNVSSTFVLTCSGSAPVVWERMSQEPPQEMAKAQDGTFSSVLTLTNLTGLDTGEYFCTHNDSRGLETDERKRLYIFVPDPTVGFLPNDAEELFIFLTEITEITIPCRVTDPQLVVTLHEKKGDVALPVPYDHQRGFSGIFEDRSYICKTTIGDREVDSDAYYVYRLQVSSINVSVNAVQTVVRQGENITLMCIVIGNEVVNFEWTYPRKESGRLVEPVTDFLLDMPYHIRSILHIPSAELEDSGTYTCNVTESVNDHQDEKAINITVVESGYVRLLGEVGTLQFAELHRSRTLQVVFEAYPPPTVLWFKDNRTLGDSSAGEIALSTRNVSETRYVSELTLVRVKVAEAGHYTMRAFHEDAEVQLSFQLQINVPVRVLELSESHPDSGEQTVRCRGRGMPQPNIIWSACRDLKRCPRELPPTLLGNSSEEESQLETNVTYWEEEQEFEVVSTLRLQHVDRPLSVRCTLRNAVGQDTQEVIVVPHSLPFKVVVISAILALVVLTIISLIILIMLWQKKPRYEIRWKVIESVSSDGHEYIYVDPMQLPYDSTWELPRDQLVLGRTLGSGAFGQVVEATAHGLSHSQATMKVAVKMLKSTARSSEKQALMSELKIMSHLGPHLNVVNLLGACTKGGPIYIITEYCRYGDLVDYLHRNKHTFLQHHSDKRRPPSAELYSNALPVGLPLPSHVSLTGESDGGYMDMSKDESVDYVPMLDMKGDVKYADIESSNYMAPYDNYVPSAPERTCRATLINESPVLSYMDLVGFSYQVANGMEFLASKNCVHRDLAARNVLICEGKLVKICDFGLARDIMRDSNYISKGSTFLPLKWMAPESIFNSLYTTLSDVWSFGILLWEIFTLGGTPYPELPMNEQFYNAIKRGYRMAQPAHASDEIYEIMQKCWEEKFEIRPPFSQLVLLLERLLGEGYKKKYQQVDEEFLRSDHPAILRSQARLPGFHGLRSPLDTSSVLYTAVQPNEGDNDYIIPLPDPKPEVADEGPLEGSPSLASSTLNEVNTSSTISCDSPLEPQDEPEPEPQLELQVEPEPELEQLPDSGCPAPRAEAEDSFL
Experimental: as §2

CDK2/cyclin A = molecular target: T8, CDK2/cyclin A (Homo sapiens, UniProt P24941); assay: Kinase inhibition assay; format: biochemical; settings: 10 μM ATP; 5-dose IC50 mode
T8 construct: purchased Reaction Biology Corporation
Experimental: as §2

ALK = molecular target: T9, ALK (Homo sapiens, UniProt Q9UM73); assay: Kinase inhibition assay; format: biochemical; settings: 10 μM ATP; 5-dose IC50 mode
T9 construct: purchased Reaction Biology Corporation
Experimental: as §2

CDK5/p25 = molecular target: T10, CDK5/p25 (Homo sapiens, UniProt Q00535); assay: Kinase inhibition assay; format: biochemical; settings: 10 μM ATP; 5-dose IC50 mode
T10 construct: purchased Reaction Biology Corporation
T10 sequence (Q00535 whole entry): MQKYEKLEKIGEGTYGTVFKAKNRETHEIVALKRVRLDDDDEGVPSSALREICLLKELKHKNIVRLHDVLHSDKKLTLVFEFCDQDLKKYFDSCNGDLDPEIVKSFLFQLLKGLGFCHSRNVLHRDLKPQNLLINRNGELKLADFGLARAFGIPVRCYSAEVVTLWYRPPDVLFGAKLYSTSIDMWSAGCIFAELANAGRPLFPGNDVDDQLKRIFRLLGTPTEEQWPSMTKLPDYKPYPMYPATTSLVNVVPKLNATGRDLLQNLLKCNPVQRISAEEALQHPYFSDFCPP
T10 sequence (Q15078 99-307 partner limits assumed): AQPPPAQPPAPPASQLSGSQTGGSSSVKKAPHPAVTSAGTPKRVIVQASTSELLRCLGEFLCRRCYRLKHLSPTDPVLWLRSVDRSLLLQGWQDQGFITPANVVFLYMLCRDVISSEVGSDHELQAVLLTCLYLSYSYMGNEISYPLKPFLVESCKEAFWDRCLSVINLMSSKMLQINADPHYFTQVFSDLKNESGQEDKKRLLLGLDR
Experimental: as §2

CHK2 = molecular target: T11, CHK2 (Homo sapiens, UniProt O96017); assay: Kinase inhibition assay; format: biochemical; settings: 10 μM ATP; 5-dose IC50 mode
T11 construct: purchased Reaction Biology Corporation
Experimental: as §2

JAK1 = molecular target: T12, JAK1 (Homo sapiens, UniProt P23458); assay: Kinase inhibition assay; format: biochemical; settings: 10 μM ATP; 5-dose IC50 mode
T12 construct: purchased Reaction Biology Corporation
Experimental: as §2

EGFR = molecular target: T13, EGFR (Homo sapiens, UniProt P00533); assay: Kinase inhibition assay; format: biochemical; settings: 10 μM ATP; 5-dose IC50 mode
T13 construct: purchased Reaction Biology Corporation
Experimental: as §2

FGFR1 = molecular target: T14, FGFR1 (Homo sapiens, UniProt P11362); assay: Kinase inhibition assay; format: biochemical; settings: 10 μM ATP; 5-dose IC50 mode
T14 construct: purchased Reaction Biology Corporation
Experimental: as §2

RSK4 = molecular target: T15, RSK4 (Homo sapiens, UniProt Q9UK32); assay: Kinase inhibition assay; format: biochemical; settings: 10 μM ATP; 5-dose IC50 mode
T15 construct: purchased Reaction Biology Corporation
Experimental: as §2

CDK5/p35 = molecular target: T16, CDK5/p35 (Homo sapiens, UniProt Q00535); assay: Kinase inhibition assay; format: biochemical; settings: 10 μM ATP; 5-dose IC50 mode
T16 construct: purchased Reaction Biology Corporation
Experimental: as §2

PLK1 = molecular target: T17, PLK1 (Homo sapiens, UniProt P53350); assay: Kinase inhibition assay; format: biochemical; settings: 10 μM ATP; 5-dose IC50 mode
T17 construct: purchased Reaction Biology Corporation
Experimental: as §2

ABL1 = molecular target: T18, ABL1 (Homo sapiens, UniProt P00519); assay: Kinase inhibition assay; format: biochemical; settings: 10 μM ATP; 5-dose IC50 mode
T18 construct: purchased Reaction Biology Corporation
Experimental: as §2

c-Src = molecular target: T19, c-Src (Homo sapiens, UniProt P12931); assay: Kinase inhibition assay; format: biochemical; settings: 10 μM ATP; 5-dose IC50 mode
T19 construct: purchased Reaction Biology Corporation
Experimental: as §2

JAK2 = molecular target: T20, JAK2 (Homo sapiens, UniProt O60674); assay: Kinase inhibition assay; format: biochemical; settings: 10 μM ATP; 5-dose IC50 mode
T20 construct: purchased Reaction Biology Corporation
Experimental: as §2

PIM1 = molecular target: T21, PIM1 (Homo sapiens, UniProt P11309); assay: Kinase inhibition assay; format: biochemical; settings: 10 μM ATP; 5-dose IC50 mode
T21 construct: purchased Reaction Biology Corporation
T21 sequence (P11309 whole entry): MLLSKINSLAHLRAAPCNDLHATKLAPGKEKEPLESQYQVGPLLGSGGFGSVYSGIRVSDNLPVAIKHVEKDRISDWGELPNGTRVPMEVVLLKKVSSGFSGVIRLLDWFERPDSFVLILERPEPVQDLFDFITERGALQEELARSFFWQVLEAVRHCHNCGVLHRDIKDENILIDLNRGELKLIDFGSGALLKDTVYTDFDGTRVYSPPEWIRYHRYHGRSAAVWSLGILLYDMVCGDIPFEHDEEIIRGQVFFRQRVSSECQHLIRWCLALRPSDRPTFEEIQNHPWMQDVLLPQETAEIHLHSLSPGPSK
Experimental: as §2

PIM3 = molecular target: T22, PIM3 (Homo sapiens, UniProt Q86V86); assay: Kinase inhibition assay; format: biochemical; settings: 10 μM ATP; 5-dose IC50 mode
T22 construct: purchased Reaction Biology Corporation
Experimental: as §2

Aurora A = molecular target: T23, Aurora A (Homo sapiens, UniProt O14965); assay: Kinase inhibition assay; format: biochemical; settings: 10 μM ATP; 5-dose IC50 mode
T23 construct: purchased Reaction Biology Corporation
Experimental: as §2

PIM2 = molecular target: T24, PIM2 (Homo sapiens, UniProt Q9P1W9); assay: Kinase inhibition assay; format: biochemical; settings: 10 μM ATP; 5-dose IC50 mode
T24 construct: purchased Reaction Biology Corporation
Experimental: as §2

MEK1 = molecular target: T25, MEK1 (Homo sapiens, UniProt Q02750); assay: Kinase inhibition assay; format: biochemical; settings: 10 μM ATP; 5-dose IC50 mode
T25 construct: purchased Reaction Biology Corporation
T25 sequence (Q02750 whole entry): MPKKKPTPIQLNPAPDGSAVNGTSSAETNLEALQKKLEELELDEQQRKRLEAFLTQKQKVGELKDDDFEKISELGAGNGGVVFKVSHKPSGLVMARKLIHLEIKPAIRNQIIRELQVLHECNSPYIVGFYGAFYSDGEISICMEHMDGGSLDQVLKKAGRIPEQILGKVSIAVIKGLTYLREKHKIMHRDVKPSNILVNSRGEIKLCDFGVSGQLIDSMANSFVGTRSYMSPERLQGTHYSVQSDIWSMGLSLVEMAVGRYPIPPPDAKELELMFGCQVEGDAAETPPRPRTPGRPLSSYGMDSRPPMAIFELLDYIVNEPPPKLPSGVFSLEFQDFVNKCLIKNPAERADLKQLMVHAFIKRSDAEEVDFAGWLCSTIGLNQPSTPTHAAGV
Experimental: as §2

AKT1 = molecular target: T26, AKT1 (Homo sapiens, UniProt P31749); assay: Kinase inhibition assay; format: biochemical; settings: 10 μM ATP; 5-dose IC50 mode
T26 construct: purchased Reaction Biology Corporation
Experimental: as §2

Aurora C = molecular target: T27, Aurora C (Homo sapiens, UniProt Q9UQB9); assay: Kinase inhibition assay; format: biochemical; settings: 10 μM ATP; 5-dose IC50 mode
T27 construct: purchased Reaction Biology Corporation
T27 sequence (Q9UQB9 whole entry): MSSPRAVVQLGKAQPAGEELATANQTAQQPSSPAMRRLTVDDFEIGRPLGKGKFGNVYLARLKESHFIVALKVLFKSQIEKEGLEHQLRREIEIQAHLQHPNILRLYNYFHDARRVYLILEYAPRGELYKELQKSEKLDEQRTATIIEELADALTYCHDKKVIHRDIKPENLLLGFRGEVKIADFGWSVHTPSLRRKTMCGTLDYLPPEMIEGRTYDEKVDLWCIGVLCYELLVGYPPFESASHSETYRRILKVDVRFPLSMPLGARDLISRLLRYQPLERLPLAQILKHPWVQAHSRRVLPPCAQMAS
Experimental: as §2

PLK2 = molecular target: T28, PLK2 (Homo sapiens, UniProt Q9NYY3); assay: Kinase inhibition assay; format: biochemical; settings: 10 μM ATP; 5-dose IC50 mode
T28 construct: purchased Reaction Biology Corporation
Experimental: as §2

Aurora B = molecular target: T29, Aurora B (Homo sapiens, UniProt Q96GD4); assay: Kinase inhibition assay; format: biochemical; settings: 10 μM ATP; 5-dose IC50 mode
T29 construct: purchased Reaction Biology Corporation
T29 sequence (Q96GD4 whole entry): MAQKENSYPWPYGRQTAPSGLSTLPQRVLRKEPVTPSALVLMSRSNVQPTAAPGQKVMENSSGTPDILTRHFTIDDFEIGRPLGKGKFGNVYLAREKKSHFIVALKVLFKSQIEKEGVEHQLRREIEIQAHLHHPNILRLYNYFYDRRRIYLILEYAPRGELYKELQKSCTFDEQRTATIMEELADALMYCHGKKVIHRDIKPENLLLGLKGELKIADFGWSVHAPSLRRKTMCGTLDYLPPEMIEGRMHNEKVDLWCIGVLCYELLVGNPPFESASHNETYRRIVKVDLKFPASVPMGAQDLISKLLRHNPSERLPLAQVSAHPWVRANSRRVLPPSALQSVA
Experimental: as §2

MEK2 = molecular target: T30, MEK2 (Homo sapiens, UniProt P36507); assay: Kinase inhibition assay; format: biochemical; settings: 10 μM ATP; 5-dose IC50 mode
T30 construct: purchased Reaction Biology Corporation
T30 sequence (P36507 whole entry): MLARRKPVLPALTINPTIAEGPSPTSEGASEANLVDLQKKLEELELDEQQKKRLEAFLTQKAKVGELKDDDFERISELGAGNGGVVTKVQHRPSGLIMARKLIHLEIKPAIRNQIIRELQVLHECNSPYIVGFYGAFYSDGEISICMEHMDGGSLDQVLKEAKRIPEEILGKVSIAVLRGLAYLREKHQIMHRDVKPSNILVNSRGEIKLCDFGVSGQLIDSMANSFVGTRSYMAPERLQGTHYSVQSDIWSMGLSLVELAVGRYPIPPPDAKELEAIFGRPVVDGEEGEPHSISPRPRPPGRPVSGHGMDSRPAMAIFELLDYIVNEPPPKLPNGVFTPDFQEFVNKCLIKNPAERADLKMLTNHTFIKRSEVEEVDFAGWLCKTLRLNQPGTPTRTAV
Experimental: as §2

CDK6/cyclin D1 = molecular target: T31, CDK6/cyclin D1 (Homo sapiens, UniProt Q00534); assay: Kinase inhibition assay; format: biochemical; settings: 10 μM ATP; 5-dose IC50 mode
T31 construct: purchased Reaction Biology Corporation
T31 sequence (Q00534 whole entry): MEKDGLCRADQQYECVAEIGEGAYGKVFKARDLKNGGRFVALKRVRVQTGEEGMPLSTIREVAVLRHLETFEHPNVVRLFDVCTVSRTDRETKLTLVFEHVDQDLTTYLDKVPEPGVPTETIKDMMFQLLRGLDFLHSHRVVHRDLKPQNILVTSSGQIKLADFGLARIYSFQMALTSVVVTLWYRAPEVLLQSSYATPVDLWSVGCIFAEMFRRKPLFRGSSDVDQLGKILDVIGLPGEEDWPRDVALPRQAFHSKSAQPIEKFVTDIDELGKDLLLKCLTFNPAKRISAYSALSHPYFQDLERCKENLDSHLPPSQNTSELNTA
T31 sequence (P24385 whole entry partner): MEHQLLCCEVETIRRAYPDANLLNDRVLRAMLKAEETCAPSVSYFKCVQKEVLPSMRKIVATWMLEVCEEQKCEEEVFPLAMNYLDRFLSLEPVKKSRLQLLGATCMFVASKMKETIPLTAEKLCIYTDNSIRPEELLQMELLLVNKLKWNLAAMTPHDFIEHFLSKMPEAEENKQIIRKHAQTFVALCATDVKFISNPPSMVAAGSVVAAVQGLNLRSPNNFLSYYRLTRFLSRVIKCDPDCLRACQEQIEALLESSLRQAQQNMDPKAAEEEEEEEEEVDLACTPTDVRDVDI
Experimental: as §2

K562 = assay: Cytotoxicity on K562 cancer cell line; format: cell-based; settings: Homo sapiens; K562 chronic myelogenous leukemia; 96 h; 0.01-100 μM
How it was run: as §1

- IC50 (FLT3): < 100 nM
- IC50 (JAK3): 100 to 1000 nM
- IC50 (RET): < 100 nM
- IC50 (CHK1): 100 to 1000 nM
- IC50 (CDK4/cyclin D1): 100 to 1000 nM
- IC50 (ARK5/NUAK1): < 100 nM
- IC50 (PDGFRb): < 100 nM
- IC50 (CDK2/cyclin A): > 1000 nM
- IC50 (ALK): < 100 nM
- IC50 (CDK5/p25): > 10000 nM
- IC50 (CHK2): 100 to 1000 nM
- IC50 (JAK1): 100 to 1000 nM
- IC50 (EGFR): 100 to 1000 nM
- IC50 (FGFR1): < 100 nM
- IC50 (RSK4): < 100 nM
- IC50 (CDK5/p35): > 10000 nM
- IC50 (PLK1): 100 to 1000 nM
- IC50 (ABL1): < 100 nM
- IC50 (c-Src): < 100 nM
- IC50 (JAK2): 100 to 1000 nM
- IC50 (PIM1): > 1000 nM
- IC50 (PIM3): > 1000 nM
- IC50 (Aurora A): 100 to 1000 nM
- IC50 (PIM2): > 1000 nM
- IC50 (MEK1): > 1000 nM
- IC50 (AKT1): > 1000 nM
- IC50 (Aurora C): > 1000 nM
- IC50 (PLK2): > 1000 nM
- IC50 (Aurora B): < 100 nM
- IC50 (MEK2): > 1000 nM
- IC50 (CDK6/cyclin D1): 100 to 1000 nM
Structure (SMILES): CN1CCN(c2ccc(Nc3ncc(/C=C/C#N)c(NC4CCCC4)n3)cc2)CC1 [Compound 8h, 3-{4-Cyclopentylamino-2-[4-(4-methylpiperazin-1-yl)phenylamino]pyrimidin-5-yl}acrylonitrile]
- IC50 (DU145): < 1000 nM
- IC50 (K562): < 1000 nM
